Results reported in PubChem BioAssay (NCI).
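Five concentrations, 48 hours, 96-well plates. GI50: concentration for 50% inhibition of growth. TGI marks complete inhibition of growth.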

Columns and labels:
Test in all cases: growth of human tumour cells (NCI), 48 h
[1] = tested on: TK-10 renal
[2] = tested on: LOX IMVI melanoma
[3] = tested on: COLO 205 colon
[4] = tested on: SF-268 CNS
[5] = tested on: U251 CNS
[6] = tested on: NCI-H460 lung
[7] = tested on: MCF7 breast
[8] = tested on: BT-549 breast
[9] = tested on: MDA-MB-435
[10] = tested on: UACC-62 melanoma

SMILES | GI50 [1] [µM] | TGI [1] [µM] | GI50 [2] [µM] | TGI [2] [µM] | GI50 [3] [µM] | TGI [3] [µM] | GI50 [4] [µM] | TGI [4] [µM] | GI50 [5] [µM] | TGI [5] [µM] | GI50 [6] [µM] | TGI [6] [µM] | GI50 [7] [µM] | TGI [7] [µM] | GI50 [8] [µM] | TGI [8] [µM] | TGI [9] [µM] | TGI [10] [µM] | GI50 [9] [µM] | GI50 [10] [µM]
COc1ccc(C(=O)/C=C/c2cc(-c3ccc(OC)c(OC)c3)n[nH]2)cc1OC | 4.96 | 47.7 | 1.29 | 2.7 | 1.55 | 3.1 | 2.09 | 9.82 | 1.2 | 2.63 | 0.606 | 4.36 | 0.937 | 8.02 | 1.44 | 2.92 | – | – | – | –
CN1CCc2ccccc2C1Cc1ccccc1NC(=O)c1sc2ccccc2c1Cl (centres undefined) | – | > 100 | – | – | – | > 100 | – | > 100 | – | > 100 | – | > 100 | – | > 100 | – | > 100 | > 100 | > 100 | – | –
Cc1[nH]c2ccccc2c1CO | 21 | 67.1 | – | – | 14.2 | 27.3 | 10.2 | 22.9 | 21.2 | 43.9 | 16.9 | 31.6 | 21.3 | 51.5 | 18.4 | 40.3 | 36.6 | 37.4 | 16.8 | 17.2
C=C(C)CC(C(=O)O)c1ccc(C)cc1 (centres undefined) | – | > 100 | – | > 100 | – | > 100 | – | > 100 | – | > 100 | – | > 100 | – | – | – | – | – | > 100 | – | –
ClCc1ccccc1Cn1cnc2nc(Cl)nc(Cl)c21 | 13.5 | 29.8 | 0.137 | 0.301 | 0.357 | > 100 | 0.379 | > 49.4 | 0.414 | 1.47 | 2.09 | > 24.3 | – | – | 1.34 | 3.08 | 13.2 | 1.37 | 6.04 | 0.495
C[C@@H]1CC[C@@]2(C)OC(c3ccccc3)[C@H](CO)N2C1=O (some centres undefined) | – | > 100 | – | > 100 | – | > 100 | – | > 100 | – | > 100 | – | > 100 | – | – | – | – | – | > 100 | – | –
COc1ccc(C)c2sc(N(Cc3cccnc3)C(=O)c3ccc(C#N)cc3)nc12 | 58.4 | > 100 | 40.8 | > 100 | 24.7 | 70 | 58.7 | > 100 | 42.3 | > 100 | 40 | > 100 | – | – | 35 | > 100 | > 100 | > 100 | 35.9 | 31.1
CC(C)N(C(=O)C12C3C4C5C3C1(C(=O)O)C5C42)C(C)C (centres undefined) | – | > 100 | – | > 100 | – | > 100 | – | > 100 | – | > 100 | – | > 100 | – | – | – | – | – | > 100 | – | –
CCOC(=O)C1CC(=O)C=C2CCCCC21 (centres undefined) | – | > 100 | – | > 100 | – | > 100 | – | > 100 | – | > 100 | – | > 100 | – | – | – | – | – | > 100 | – | –
CC(=O)N1c2ccccc2N(C(C)=O)C1c1ccc(C2N(C(C)=O)c3ccccc3N2C(C)=O)[nH]1 | – | > 100 | – | > 100 | – | > 100 | – | > 100 | – | > 100 | – | > 100 | – | – | – | – | – | > 100 | – | –
COc1ccc(OC)c(N2CC(O)=C(c3nc4ccccc4s3)C2=N)c1 | > 100 | > 100 | 45.4 | > 100 | 47.3 | > 100 | > 100 | > 100 | 51.5 | > 100 | 63 | > 100 | 60.8 | > 100 | – | – | > 100 | > 100 | 20.8 | 26.4
COc1cccc2c1C(=O)c1c(O)c3c(c(O)c1C2=O)C[C@](O)(C(=O)CO)C[C@H]3O[C@@H]1C[C@@H](NC(=O)CCCN(C)C2(c3ccc(F)cc3)CC3CCC2C3)[C@H](O)[C@@H](C)O1 (some centres undefined) | 0.78 | 1.64 | 0.734 | 1.45 | 0.712 | 1.44 | – | – | 0.793 | 1.52 | 0.545 | 1.22 | – | – | 5.07 | 13.7 | 1.61 | 1.92 | 0.836 | 0.889
C=CCCn1nc(-c2ccccc2)oc1=O | – | > 100 | – | > 100 | – | > 100 | – | > 100 | – | > 100 | – | > 100 | – | – | – | – | – | > 100 | – | –
CCN1/C(=C/C(C)=C/c2sc3ccc4ccccc4c3[n+]2CC)Sc2ccc3ccccc3c21 | 0.217 | 0.997 | 0.183 | 0.465 | – | – | 0.198 | 0.678 | 0.108 | 0.336 | 0.121 | 0.329 | 0.149 | 0.42 | – | – | – | 1.8 | – | 0.31
